Source: patent US8802674B2, “Aminopyrimidine derivatives as LRRK2 modulators” (Genentech, Inc., priority 2011, dated 2014)

Biological target: LRRK2 (Homo sapiens (Human), UniProt Q5S007, G2019S)
Assay: In Vitro LRRK2 LabChip Assay
Type: biochemical
Settings: Table 4
Protocol: In Vitro LRRK2 LabChip Assay
This assay was used to determine a compound's potency in inhibiting activity of LRRK2 by determining, Kiapp, IC50, or percent inhibition values. In a polypropylene plate, LRRK2, fluorescently-labeled peptide substrate, ATP and test compound were incubated together. Using a LabChip 3000 (Caliper Life Sciences), after the reaction the substrate was separated by capillary electrophoresis into two populations: phosphorylated and unphosphorylated. The relative amounts of each were quantitated by fluorescence intensity. LRRK2 Ki was determined according to the equation: Y=V0*(1−((x+Ki*(1+S/Km)+Et)/(2*Et)−(((x+Ki*(1+S/Km)+Et)^2−(4*Et*x))^0.5)/(2*Et))). Ki values in Table 4 and elsewhere herein are shown in μM.
Assay conditions and materials used were as follows:
Compound Plate Preparation:
For serial dilutions, 34.6 μl DMSO was added to columns 3-24. For the assay controls, 37.5 μl DMSO was added to columns 1 and 2 of rows A and P. a,d and 50 μl 25 μM G-028831 (Staurosporine) was added to columns 1 and 2, row B. For the samples: to start at 100 μM, 37.5 μl DMSO was to columns 1 and 2, then 12.5 μl 10 mM compound; to start at 10 μM, 78 μl DMSO was added to columns 1 & 2, then 2 μl 10 mM compound; and to start at 1 μM, 25 μM compound (2 μl 10 mM cmpd+798 μl DMSO) was added to empty columns 1 and 2. A Precision instrument was used to perform 1:3.16 serial dilutions (“PLK_BM_serial_halflog”).
ATP was diluted to 282.1 μM in Complete Kinase Buffer (final concentration was 130 μM).
Total and Blank Preparation:
In Complete Reaction Buffer, substrate was diluted to 4 μM. Equal volumes of Complete Reaction Buffer and 4 μM substrate were combined to obtain the blank. Equal volumes of Complete Reaction Buffer and 4 μM substrate were combined and to the combined solution was added 2× final LRRK2 concentration.
To a 50 μl polypropylene plate, 5 μl/well buffer/substrate was added by hand to Blank wells. A Biomek FX was used to start the kinase reaction (“PLK SAR 23 ATP”). The following were added to the appropriate wells:
5 μl/well compound/ATP in Assay Plate;
5 μl/well kinase/substrate in Assay Plate;
The plate was incubated for 2 hours in the dark. Biomek FX was used to stop the kinase reaction (“PLK Stop”), and 10 μl/well Stop solution was added to the Assay Plate. Results were read on the LabChip 3000.
The LabChip 3000 was run using the job “LRRK2IC50” with the following job settings: […]

Sequence of LRRK2 (Q5S007 970-2527 G2019S limits assumed): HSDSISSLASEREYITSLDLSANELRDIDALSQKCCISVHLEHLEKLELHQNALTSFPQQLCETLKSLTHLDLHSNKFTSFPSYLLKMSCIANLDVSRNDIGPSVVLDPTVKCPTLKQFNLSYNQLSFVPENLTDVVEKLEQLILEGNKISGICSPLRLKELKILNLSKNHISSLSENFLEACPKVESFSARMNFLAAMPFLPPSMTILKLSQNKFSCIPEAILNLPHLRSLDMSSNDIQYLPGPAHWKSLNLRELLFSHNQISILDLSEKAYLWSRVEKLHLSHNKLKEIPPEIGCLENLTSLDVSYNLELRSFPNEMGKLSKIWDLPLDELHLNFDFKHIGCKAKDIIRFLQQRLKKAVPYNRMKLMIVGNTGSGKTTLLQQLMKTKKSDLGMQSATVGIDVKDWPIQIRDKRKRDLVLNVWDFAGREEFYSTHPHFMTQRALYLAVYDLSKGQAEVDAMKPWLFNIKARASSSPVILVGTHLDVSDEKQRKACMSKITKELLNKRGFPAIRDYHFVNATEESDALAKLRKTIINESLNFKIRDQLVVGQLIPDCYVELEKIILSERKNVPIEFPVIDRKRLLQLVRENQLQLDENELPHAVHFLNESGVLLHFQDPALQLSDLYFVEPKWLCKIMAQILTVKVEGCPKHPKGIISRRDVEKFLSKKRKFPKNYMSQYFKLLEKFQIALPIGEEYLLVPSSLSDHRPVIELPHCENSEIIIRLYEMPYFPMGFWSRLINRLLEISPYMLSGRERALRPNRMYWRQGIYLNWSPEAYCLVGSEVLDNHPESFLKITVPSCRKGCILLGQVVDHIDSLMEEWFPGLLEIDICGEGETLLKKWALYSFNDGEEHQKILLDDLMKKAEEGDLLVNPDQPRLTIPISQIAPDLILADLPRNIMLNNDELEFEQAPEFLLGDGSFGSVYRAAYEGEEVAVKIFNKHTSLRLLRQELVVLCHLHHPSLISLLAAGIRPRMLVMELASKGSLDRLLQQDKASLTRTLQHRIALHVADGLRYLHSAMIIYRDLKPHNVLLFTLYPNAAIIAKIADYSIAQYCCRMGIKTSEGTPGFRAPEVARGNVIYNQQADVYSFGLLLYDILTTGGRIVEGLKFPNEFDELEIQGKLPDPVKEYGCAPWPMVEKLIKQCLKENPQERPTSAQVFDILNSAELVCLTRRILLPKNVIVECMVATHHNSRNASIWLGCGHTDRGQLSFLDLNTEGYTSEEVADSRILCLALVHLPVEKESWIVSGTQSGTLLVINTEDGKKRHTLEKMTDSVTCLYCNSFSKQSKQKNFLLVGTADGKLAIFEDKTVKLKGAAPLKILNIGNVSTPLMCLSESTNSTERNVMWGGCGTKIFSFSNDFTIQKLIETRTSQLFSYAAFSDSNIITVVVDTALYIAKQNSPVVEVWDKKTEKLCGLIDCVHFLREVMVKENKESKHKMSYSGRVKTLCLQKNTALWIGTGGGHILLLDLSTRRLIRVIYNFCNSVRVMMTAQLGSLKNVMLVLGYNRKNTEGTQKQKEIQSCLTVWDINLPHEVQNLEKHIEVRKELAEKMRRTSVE

Ki [nM]	SMILES
9.3	CNc1nc(Nc2ccc(C(=O)N3CCC(F)C3)cc2OC)ncc1C#N (stereo in doubt) [Example 210, 2-[4-((R)-3-Fluoropyrrolidine-1-carbonyl)-2-methoxy-phenylamino]-4-methylamino-pyrimidine-5-carbonitrile]
44.6	CNc1nc(Nc2ccc(C(=O)N3CCC(O)CC3)cc2OC)ncc1F [Example 2, [4-(5-Fluoro-4-methylamino-pyrimidin-2-ylamino)-3-methoxy-phenyl]-(4-hydroxy-piperidin-1-yl)-methanone]
6.1	CNc1nc(Nc2ccc(C(=O)N(C)C)cc2OC)ncc1Cl [Example 4, 4-(5-Chloro-4-methylamino-pyrimidin-2-ylamino)-3-methoxy-N,N-dimethyl-benzamide]
2.4	CNc1nc(Nc2ccc(C(=O)NC3CC3)cc2OC)ncc1Cl [Example 5, 4-(5-Chloro-4-methylamino-pyrimidin-2-ylamino)-N-cyclopropyl-3-methoxy-benzamide]
4.9	CNc1nc(Nc2ccc(C(=O)N3CCOCC3)cc2OC(F)F)ncc1Cl [Example 7, [4-(5-Chloro-4-methylamino-pyrimidin-2-ylamino)-3-difluoromethoxy-phenyl]-morpholin-4-yl-methanone]
3.5	CNc1nc(Nc2ccc(C(=O)N3CCN4CCCCC4C3)cc2OC)ncc1Cl (centres unmarked) [Example 8, [4-(5-Chloro-4-methylamino-pyrimidin-2-ylamino)-3-methoxy-phenyl]-(octahydro-pyrido[1,2-a]pyrazin-2-yl)-methanone]
6.2	CNc1nc(Nc2ccc(C(=O)N3CC(C)CC(C)C3)cc2OC)ncc1Cl (centres unmarked) [Example 11, [4-(5-Chloro-4-methylamino-pyrimidin-2-ylamino)-3-methoxy-phenyl]-(3,5-dimethyl-piperidin-1-yl)-methanone]
2.5	CNc1nc(Nc2ccc(C(=O)N3CCCCC3)cc2OC)ncc1Cl [Example 15, [4-(5-Chloro-4-methylamino-pyrimidin-2-ylamino)-3-methoxy-phenyl]-piperidin-1-yl-methanone]
5.2	CNc1nc(Nc2ccc(C(=O)N3CCC3)cc2OC)ncc1Cl [Example 16, Azetidin-1-yl-[4-(5-chloro-4-methylamino-pyrimidin-2-ylamino)-3-methoxy-phenyl]-methanone]
3	CNc1nc(Nc2ccc(C(=O)N3CCC(F)(F)CC3)cc2OC)ncc1Cl [Example 17, [4-(5-Chloro-4-methylamino-pyrimidin-2-ylamino)-3-methoxy-phenyl]-(4,4-difluoro-piperidin-1-yl)-methanone]
3.4	CNc1nc(Nc2ccc(C(=O)N3CCN(C(C)=O)CC3)cc2OC)ncc1Cl [Example 25, l-{4-[4-(5-Chloro-4-methylamino-pyrimidin-2-ylamino)-3-methoxy-benzoyl]-piperazin-1-yl}-ethanone]
2.8	CNc1nc(Nc2ccc(C(=O)N3CCCC(C(F)(F)F)C3)cc2OC)ncc1Cl (centres unmarked) [Example 26, [4-(5-Chloro-4-methylamino-pyrimidin-2-ylamino)-3-methoxy-phenyl]-(3-trifluoromethyl-piperidin-1-yl)-methanone]
3.8	CNc1nc(Nc2ccc(C(=O)N3CCCC3C)cc2OC)ncc1Cl (centres unmarked) [Example 29, [4-(5-Chloro-4-methylamino-pyrimidin-2-ylamino)-3-methoxy-phenyl]-(2-methyl-pyrrolidin-1-yl)-methanone]
4.7	CNc1nc(Nc2ccc(C(=O)N3CCCC3)cc2OC)ncc1Cl [Example 32, [4-(5-Chloro-4-methylamino-pyrimidin-2-ylamino)-3-methoxy-phenyl]-pyrrolidin-1-yl-methanone]
3.6	CNc1nc(Nc2ccc(C(=O)N3CCN(S(C)(=O)=O)CC3)cc2OC)ncc1Cl [Example 33, [4-(5-Chloro-4-methylamino-pyrimidin-2-ylamino)-3-methoxy-phenyl]-(4-methanesulfonyl-piperazin-1-yl)-methanone]
5.5	CCC1(CC)CN(C(=O)c2ccc(Nc3ncc(Cl)c(NC)n3)c(OC)c2)CCO1 [Example 39, [4-(5-Chloro-4-methylamino-pyrimidin-2-ylamino)-3-methoxy-phenyl]-(2,2-diethyl-morpholin-4-yl)-methanone]

Ki [nM]	SMILES
4.4	CNc1nc(Nc2ccc(C(=O)N3CCOCC3CO)cc2OC)ncc1Cl (centres unmarked) [Example 40, [4-(5-Chloro-4-methylamino-pyrimidin-2-ylamino)-3-methoxy-phenyl]-(3-hydroxymethyl-morpholin-4-yl)-methanone]
4.2	CNc1nc(Nc2ccc(C(=O)N3CCOC(CC(C)C)C3)cc2OC)ncc1Cl (centres unmarked) [Example 41, [4-(5-Chloro-4-methylamino-pyrimidin-2-ylamino)-3-methoxy-phenyl]-(2-isobutyl-morpholin-4-yl)-methanone]
2.8	CNc1nc(Nc2ccc(C(=O)N3CCNCC3)cc2OC)ncc1Cl [Example 47, [4-(5-Chloro-4-methylamino-pyrimidin-2-ylamino)-3-methoxy-phenyl]-piperazin-1-yl-methanone]
4.3	CCOc1cc(C(=O)N2CCOCC2)ccc1Nc1ncc(Cl)c(NC)n1 [Example 49, [4-(5-Chloro-4-methylamino-pyrimidin-2-ylamino)-3-ethoxy-phenyl]-morpholin-4-yl-methanone]
2.7	CNc1nc(Nc2ccc(C(=O)N3CCOCC3)cc2OC)ncc1C(F)(F)F [Example 50, [3-Methoxy-4-(4-methylamino-5-trifluoromethyl-pyrimidin-2-ylamino)-phenyl]-morpholin-4-yl-methanone]
5.1	CNc1nc(Nc2ccc(C(N)=O)cc2OC)ncc1Cl [Example 51, 4-(5-Chloro-4-methylamino-pyrimidin-2-ylamino)-3-methoxy-benzamide]
2	CNc1nc(Nc2ccc(C(=O)NC(C)C)cc2OC)ncc1Cl [Example 53, 4-(5-Chloro-4-methylamino-pyrimidin-2-ylamino)-N-isopropyl-3-methoxy-benzamide]
13	COc1cc(C(=O)N2CCOCC2)ccc1Nc1ncc(Cl)c(OC(C)C)n1 [Example 59, [4-(5-Chloro-4-isopropoxy-pyrimidin-2-ylamino)-3-methoxy-phenyl]-morpholin-4-yl-methanone]
10.4	COc1cc(C(=O)N2CCOCC2)ccc1Nc1ncc(Cl)c(OC)n1 [Example 61, [4-(5-Chloro-4-methoxy-pyrimidin-2-ylamino)-3-methoxy-phenyl]-morpholin-4-yl-methanone]
4.5	CNc1nc(Nc2ccc(C(=O)N3CC4CC3CO4)cc2OC)ncc1Cl (centres unmarked) [Example 62, [4-(5-Chloro-4-methylamino-pyrimidin-2-ylamino)-3-methoxy-phenyl]-(2-oxa-5-aza-bicyclo[2.2.1]hept-5-yl)-methanone]
2	CNc1nc(Nc2ccc(C(=O)N3CC4CCC(C3)O4)cc2OC)ncc1Cl [Example 63, [4-(5-Chloro-4-methylamino-pyrimidin-2-ylamino)-3-methoxy-phenyl]-(8-oxa-3-aza-bicyclo[3.2.1]oct-3-yl)-methanone]
2.3	CNc1nc(Nc2ccc(C(=O)NCCCN)cc2OC)ncc1Cl [Example 65, N-(3-Amino-propyl)-4-(5-chloro-4-methylamino-pyrimidin-2-ylamino)-3-methoxy-benzamide]
35.9	CNc1nc(Nc2ccc(C(=O)N3CCOCC3)cc2OC)ncc1C1CC1 [Example 66, [4-(5-Cyclopropyl-4-methylamino-pyrimidin-2-ylamino)-3-methoxy-phenyl]-morpholin-4-yl-methanone]
4	COc1cc(C(=O)N2CCOCC2)ccc1Nc1ncc(Cl)c(NCC(C)C)n1 [Example 67, [4-(5-Chloro-4-isobutylamino-pyrimidin-2-ylamino)-3-methoxy-phenyl]-morpholin-4-yl-methanone]
2.2	CNc1nc(Nc2ccc(C(=O)N3CCN(C(=O)C4CC4)CC3)cc2OC)ncc1Cl [Example 70, [4-(5-Chloro-4-methylamino-pyrimidin-2-ylamino)-3-methoxy-phenyl]-(4-cyclopropanecarbonyl-piperazin-1-yl)-methanone]

SMILES	Ki [nM]
CNc1nc(Nc2ccc(C(=O)N3C4CCC3COC4)cc2OC)ncc1Cl [Example 57, [4-(5-Chloro-4-methylamino-pyrimidin-2-ylamino)-3-methoxy-phenyl]-(3-oxa-8-aza-bicyclo[3.2.1]oct-8-yl)-methanone]	2.5
